Experiments:
[1] = Passive release of ibuprofen from pressure sensitive adhesive patch, diffusion cells; conditions: Nylon membrane, patch without excipients
Description: Prior to determination of active pharmaceutical ingredient (API) diffusion across skin mimicking membranes, a passive release of ibuprofen from the pressure sensitive adhesive must be verified. […] Such an experiment can be performed using non-rate-limiting membranes, for example porous silicone, Nylon or polytetrafluoroethylene (PTFE). In this study, Nylon was employed as the test model for passive release.
All further mentioned patches contain 10 wt % of API. Unless stated otherwise, 6 sample patches were analysed in parallel. […] Experimental conditions are listed below.
Patch components: Pressure sensitive adhesive, ibuprofen, […]. Patch thickness: 300 μm Membrane type: Nylon, pore size 0.45 μm Apparatus: diffusion cells Acceptor medium: mixture of pH 7.4 PBS/2-(2-ethoxyethoxy) ethanol (90/10 vol.) […]

[2] = Permeation of ibuprofen from patches through Strat-M membranes, diffusion cells; assay type: in vitro ADME; conditions: Strat-M membrane, patch without excipients
Description: In order to determine the necessity for further modification of ibuprofen patches with excipients, permeation rates of the API were observed using Strat-M membranes. Strat-M membranes are produced by Merck Millipore as a synthetic transdermal diffusion model to avoid animal or human skin testing. There is a correlation tool on a dedicated website allowing a comparison with human skin. Permeation profiles can vary depending on a drug, but it proves that Strat-M membranes can be employed as a reliable evaluation of any transdermal system in terms of human skin penetration. It must be said that penetration profiles in the case of human skin may differ from the aforementioned membrane, but allows predicting the efficacy of patches with certain reliability.
Patches tested in this study are from the same batch as employed in release experiments and were run under the same conditions. Permeation profiles and release profiles of ibuprofen through Strat-M membranes are depicted in FIGS. 1 and 2, respectively. […]

Total Released Amount ([1]; 1 h): 227.93 μg cm^−2
Total Released Amount ([1]; 2 h): 438.23 μg cm^−2
Total Released Amount ([1]; 4 h): 726.09 μg cm^−2
Total Released Amount ([1]; 6 h): 967.49 μg cm^−2
Total Released Amount ([1]; 8 h): 1124.13 μg cm^−2
Total Released Amount ([1]; 10 h): 1257.46 μg cm^−2
Total Released Amount ([1]; 12 h): 1397.34 μg cm^−2
Total Released Amount ([1]; 24 h): 1650.21 μg cm^−2
Flux ([2]; 1 h): 1.29 μg cm^−2 h^−1
Total Amount ([2]; 1 h): 1.291 μg cm^−2
Flux ([2]; 2 h): 2.75 μg cm^−2 h^−1
Total Amount ([2]; 2 h): 4.044 μg cm^−2
Flux ([2]; 4 h): 2.71 μg cm^−2 h^−1
Total Amount ([2]; 4 h): 9.466 μg cm^−2
Flux ([2]; 6 h): 3.56 μg cm^−2 h^−1
Total Amount ([2]; 6 h): 16.595 μg cm^−2
Flux ([2]; 8 h): 3.91 μg cm^−2 h^−1
Total Amount ([2]; 8 h): 24.424 μg cm^−2
Flux ([2]; 10 h): 5.82 μg cm^−2 h^−1
Total Amount ([2]; 10 h): 36.066 μg cm^−2
Flux ([2]; 12 h): 6.92 μg cm^−2 h^−1
Total Amount ([2]; 12 h): 49.915 μg cm^−2
Flux ([2]; 24 h): 4.96 μg cm^−2 h^−1
Total Amount ([2]; 24 h): 109.467 μg cm^−2
Compound: CC(C)Cc1ccc(C(C)C(=O)O)cc1 (stereo not drawn) [ibuprofen]
